The subject of assay [1] is rats. Conditions: cited from earlier work.
Assay [2] deals with T1, E1-STS (Homo sapiens, UniProt P08842).
T1 construct: host or cells: intact MCF-7 cells (endogenous enzyme)
T1 sequence (P08842 22-583): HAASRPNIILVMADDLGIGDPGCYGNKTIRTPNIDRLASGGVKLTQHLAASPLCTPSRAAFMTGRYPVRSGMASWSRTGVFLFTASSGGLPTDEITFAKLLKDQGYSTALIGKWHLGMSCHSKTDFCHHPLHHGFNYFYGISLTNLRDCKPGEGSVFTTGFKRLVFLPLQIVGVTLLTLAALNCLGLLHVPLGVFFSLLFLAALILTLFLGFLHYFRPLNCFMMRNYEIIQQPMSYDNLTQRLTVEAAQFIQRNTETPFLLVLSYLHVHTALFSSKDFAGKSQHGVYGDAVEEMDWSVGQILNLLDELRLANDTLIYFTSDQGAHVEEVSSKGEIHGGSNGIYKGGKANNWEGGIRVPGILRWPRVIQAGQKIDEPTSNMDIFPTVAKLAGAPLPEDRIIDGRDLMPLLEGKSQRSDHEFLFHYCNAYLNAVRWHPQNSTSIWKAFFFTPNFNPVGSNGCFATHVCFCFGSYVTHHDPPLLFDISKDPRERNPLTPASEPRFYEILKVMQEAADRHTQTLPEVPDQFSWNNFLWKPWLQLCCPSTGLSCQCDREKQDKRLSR
The conditions noted are these: intact MCF-7 cells, at 0.1 nM; cited from earlier work.

For assay [3], the target named is T2, Steroid sulphatase (STS) (Homo sapiens, UniProt P08842).
T2 construct: host or cells: JEG3 choriocarcinoma cells, intact monolayers
T2 sequence (P08842 22-583): T1 sequence (P08842 22-583)
Kind of assay: Inhibition of steroid sulphatase activity in JEG3 cells (Protocol 1). In kind it is cell-based. Conditions: intact JEG3 cells, [6,7-3H]oestrone-3-sulphate, 3-4 hours. The method, then: Assay for Determining STS Activity Using Cancer Cells
Inhibition of Steroid Sulphatase Activity in JEG3 Cells
Steroid sulphatase activity is measured in vitro using intact JEG3 choriocarcinoma cells.
Cells are maintained in Minimal Essential Medium (MEM) containing 20 mM HEPES, 5% foetal bovine serum, 2 mM glutamine, non-essential amino acids and 0.075% sodium bicarbonate. Up to 30 replicate 25 cm^2 tissue culture flasks are seeded with approximately 1×10^5 cells/flask using the above medium Cells are grown to 80% confluency and the medium is changed every third day.
Intact monolayers of JEG3 cells in triplicate 25 cm^2 tissue culture flasks are washed with Earle's Balanced Salt Solution (EBSS) and incubated for 3-4 hours at 37° C. with 5 pmol (7×10^5 dpm) [6, 7-3H]oestrone-3-sulphate (specific activity 60 Ci/mmol) in serum-free MEM (2.5 ml) together with oestrone-3-sulphamate (11 concentrations: 0; 1fM; 0.01 pM; 0.1 pM, 1 pM; 0.01 nM; 0.1 nM; 0.01 mM; 0.1 mM; 1 mM). After incubation each flask is cooled and the medium (1 ml) is pipetted into separate tubes containing [14C]oestrone (7×10^3 dpm) (specific activity 97 Ci/mmol). The mixture is shaken thoroughly for 30 seconds with toluene (5 ml) Experiments have shown that >90% [14C]oestrone and <0 1% [3H]oestrone-3-sulphate is removed from the aqueous phase by this treatment A portion (2 ml) of the organic phase is removed, evaporated and the 3H and 14C content of the residue determined by scintillation spectrometry The mass of oestrone-3-sulphate hydrolysed was calculated from the 3H counts obtained (corrected for the volumes of the medium and organic phase used, and for recovery of [14C] oestrone added) and the specific activity of the substrate Each batch of experiments includes incubations of microsomes prepared from a sulphatase-positive human placenta (positive control) and flasks without cells (to assess apparent non-enzymatic hydrolysis of the substrate). The number of cell nuclei per flask is determined using a Coulter Counter after treating the cell monolayers with Zaponin One flask in each batch is used to assess cell membrane status and viability using the Trypan Blue exclusion method (Phillips, H J. (1973) In: Tissue culture and applications, [eds: Kruse, D. F. & Patterson, M. K]; pp 406-408; Academic Press, New York)
Results for steroid sulphatase activity are expressed as the mean±1S.D. of the total product (oestrone+oestradiol) formed during the incubation period (3-4 hours) calculated for […] and, for values showing statistical significance, as a percentage reduction (inhibition) over incubations containing no oestrone-3-sulphamate. Unpaired Student's t-test was used to test the statistical significance of results
Sterioid sulphatase inhibition was measured in accordance with Protocol 1

In assay [4] the target is T3, Aromatase (Homo sapiens, UniProt P11511).
T3 construct: host or cells: JEG3 choriocarcinoma cells, intact monolayers
T3 sequence (P11511 1-503): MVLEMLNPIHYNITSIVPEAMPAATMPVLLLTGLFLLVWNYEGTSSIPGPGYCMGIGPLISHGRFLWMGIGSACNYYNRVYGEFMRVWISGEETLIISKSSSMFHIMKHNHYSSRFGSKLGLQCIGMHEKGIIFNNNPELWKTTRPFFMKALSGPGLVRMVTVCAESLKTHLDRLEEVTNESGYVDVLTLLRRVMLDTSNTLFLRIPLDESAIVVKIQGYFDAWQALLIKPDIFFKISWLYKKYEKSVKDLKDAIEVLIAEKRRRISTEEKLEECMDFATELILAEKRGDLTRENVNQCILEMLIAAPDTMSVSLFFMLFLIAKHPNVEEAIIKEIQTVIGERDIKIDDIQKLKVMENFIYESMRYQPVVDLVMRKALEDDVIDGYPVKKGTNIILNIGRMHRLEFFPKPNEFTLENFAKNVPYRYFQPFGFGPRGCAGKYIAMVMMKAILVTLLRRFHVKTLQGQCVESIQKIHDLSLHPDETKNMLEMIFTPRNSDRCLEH
Nature of the assay: Aromatase activity in JEG3 cells (Protocol 6). In kind it is cell-based. The conditions noted are these: intact JEG3 cells, [1β-3H]androstenedione, 30 min. The method, then:
Assay for Determining Aromatase Activity Using JEG3 Cells
Aromatase activity is measured in JEG3 choriocarcinoma cells, obtained from the ATCC. […] During the aromatase reaction, ^3H2O is liberated which can be quantified using a liquid scintillation spectrometer. […] The number of cell nuclei per flask is determined using a Coulter Counter after treating the cell monolayers with Zaponin.
Aromatase inhibition was measured in accordance with Protocol 6.

The target of assay [5] is T4, steroid sulphatase (Homo sapiens, UniProt P08842).
T4 sequence (P08842 22-583): T1 sequence (P08842 22-583)
The conditions noted are these: compared with EMATE; cited from earlier work.

Data on 16 compounds can be found in patent US8846737B2, “Compound” (Sterix Limited, priority 2009, dated 2014).

As a reminder, the IC50 is the concentration at which inhibition is half-maximal. Read a low IC50 as greater potency.

Structures are written as SMILES.

As to `CC12CCC3c4ccc(OS(N)(=O)=O)cc4CCC3C1CCC2=O` (centres unmarked) [EMATE, oestrone-3-sulphamate], the “oral uterotrophic activity relative to estradiol” value in assay [1] (rats, oral) is 100 times. Besides, the “inhibition of E1-STS activity” value in assay [2] was “more than 99%”.

In the case of `N#Cc1ccc(N(Cc2ccc(OS(N)(=O)=O)cc2)n2ccnc2)cc1-c1ccccc1` [Compound 32], the IC50 in assay [3] is 9.7 ± 4.2 nM; in assay [4] it was less than 0.1 nM.

Regarding `COc1ccc(Cc2cc(N(Cc3ccc(OS(N)(=O)=O)cc3)n3cnnc3)ccc2C#N)cc1` [Compound 45], the IC50 in assay [3] was 292 ± 80 nM; in assay [4], 40.7 ± 4.5 nM.

With `N#Cc1ccc(N(Cc2c(F)cc(OS(N)(=O)=O)cc2F)n2cnnc2)cc1-c1ccccc1` [PMW04153, 4-(((6-Cyanobiphenyl-3-yl)(4H-1,2,4-triazol-4-yl)amino)methyl)-3,5-difluorophenyl sulfamate], the IC50 is 0.12 ± 0.02 nM in assay [3] and less than 0.1 nM in assay [4].

`N#Cc1ccc(N(Cc2ccc(OS(N)(=O)=O)c(Cl)c2)n2cnnc2)cc1-c1ccccc1` [CAB06049, 2-Chloro-4-(((6-cyanobiphenyl-3-yl)(4H-1,2,4-triazol-4-yl)amino)methyl)phenyl sulfamate]: the IC50 in assay [3] was 0.83 ± 0.15 nM; in assay [4], 0.015 ± 0.005 nM.

In the case of `N#Cc1ccc(N(Cc2c(F)cc(OS(N)(=O)=O)cc2F)n2cnnc2)cc1-c1ccc(F)cc1` [Compound 47], the IC50 stood at 14 ± 0.87 nM in assay [3] and 5.6 ± 0.1 nM in assay [4].

For `N#Cc1ccc(N(Cc2ccc(OS(N)(=O)=O)cc2)n2cnnc2)cc1-c1ccccc1` [CAB06025, 4-(((6-Cyanobiphenyl-3-yl)(4H-1,2,4-triazol-4-yl)amino)methyl)phenyl sulfamate], the IC50 was 17 ± 2 nM in assay [3] and 0.14 ± 0.01 nM in assay [4].

In the case of `COc1ccc(-c2cc(N(Cc3ccc(OS(N)(=O)=O)cc3)n3cnnc3)ccc2C#N)cc1` [CAB06077], the values for the IC50 in assay [3] and in assay [4] were 22 ± 6 nM and 0.015 ± 0.001 nM, respectively.

Take `N#Cc1ccc(-c2cc(N(Cc3ccc(OS(N)(=O)=O)cc3)n3cnnc3)ccc2C#N)cc1` [CAB06088, 4-(((4′,6-Dicyanobiphenyl-3-yl)(4H-1,2,4-triazol-4-yl)amino)methyl)phenyl sulfamate]: the IC50 stood at 240 ± 60 nM in assay [3] and 0.75 ± 0.18 nM in assay [4].

With `N#Cc1ccc(N(Cc2ccc(OS(N)(=O)=O)cc2)n2cnnc2)cc1CN1CCCC1` [Compound 41], the IC50 in assay [3] was 4360 ± 554 nM; in assay [4], 97 ± 2.7 nM.

Consider `N#Cc1ccc(N(Cc2ccc(OS(N)(=O)=O)cc2)n2cnnc2)cc1-c1ccc(F)cc1` [CAB06078, 4-(((6-Cyano-4′-fluorobiphenyl-3-yl)(4H-1,2,4-triazol-4-yl)amino)methyl)phenyl sulfamate], for which the IC50 in assay [3] came out at 55 ± 6 nM; in assay [4], 0.47 ± 0.18 nM.

With `N#Cc1ccc(N(Cc2ccc(OS(N)(=O)=O)cc2)n2cnnc2)cc1N1CCCCCC1` [Compound 19], the figures for the IC50 in assay [3] and in assay [4] were 181 ± 8 nM and 3.2 ± 0.1 nM, respectively.

As for `COc1cc2c(cc1OS(N)(=O)=O)CC[C@@H]1[C@@H]2CC[C@]2(C)C(=O)CC[C@@H]12` [2-methoxyoestrone-3-O-sulphamate], in assay [1] (rat, in vivo), the oestrogenicity result is reported as “devoid of oestrogenicity”. Further, in assay [5], the “potency as steroid sulphatase inhibitor” value is “equipotent with EMATE”.

Regarding `N#Cc1ccc(N(Cc2ccc(OS(N)(=O)=O)c(Br)c2)n2cnnc2)cc1-c1ccccc1` [CAB06045, 2-Bromo-4-(((6-cyanobiphenyl-3-yl)(4H-1,2,4-triazol-4-yl)amino)methyl)phenyl sulfamate], the IC50 in assay [3] turned out to be 0.13 ± 0.01 nM; in assay [4], 0.018 ± 0.01 nM.

`N#Cc1ccc(N(Cc2ccc(OS(N)(=O)=O)cc2)n2cnnc2)cc1N1CCCCCC1=O` [Compound 11]: the IC50 is 1300 ± 265 nM in assay [3] and 850 ± 104 nM in assay [4].

As to `N#Cc1ccc(N(Cc2ccc(OS(N)(=O)=O)cc2)n2cnnc2)cc1Oc1ccccc1` [Compound 57], the IC50 was 62 ± 13 nM in assay [3] and 12.5 ± 2.3 nM in assay [4].
